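Protocol summary: plate cells (96-well), add compound at 5 concentrations, incubate 48 h, interpolate endpoints linearly. The concentration for full growth arrest is given as TGI.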

In the first experiment the test system is CCRF-CEM leukemia. As to the kind of experiment: growth of human tumour cells (NCI), 48 h.
Compound `CC(C)CC(NC(=O)C(CI)Cc1ccccc1)C(=O)Nc1ccccc1` (centres undefined) showed a TGI of over 100 µM.
On the same count and under the same terms, the figure for `O=C1c2cccc3cccc(c23)C2NCCCN12` (centres undefined) is over 100 µM.
Still for that read-out and setting: then `CCCCSC1=N/C(=C\c2ccco2)C(Cl)=N1`, with over 100 µM; and `CC(=O)O[C@H]1CCC2[C@@H]3CCC4Nc5oncc5C[C@]4(C)C3CC[C@@]21C` (some centres undefined), with over 10 µM; and `CCOC(=O)c1nc2ccc(C(F)(F)F)cc2[nH]c1=O`, with over 100 µM.
Regarding `COC1=CC2C(c3cc4ccccc4n3S(=O)(=O)c3ccccc3)CC1CN2C(=O)OCc1ccccc1` (centres undefined), the TGI is over 100 µM.
On the same count and under the same terms, then `Cc1cn(C2CC(O)C(CO[Si](C)(C)C(C)(C)C)OC2OC(C)C)c(=O)[nH]c1=O` (centres undefined), with 61.1 µM; and `CNC(=S)N=Nc1c(O)n(CN2CCOCC2)c2ccc([N+](=O)[O-])cc12`, with 71.8 µM; and `COc1ccc(-c2csc(Cc3nc4ccccc4c(=O)n3-c3ccc(Cl)cc3)n2)cc1`, with over 100 µM.
On the same count and under the same terms, the figure for `O=C(Nc1nncs1)NS(=O)(=O)n1c(=S)sc2ccccc21` is 75.7 µM.
For `COc1ccc2[nH]c3c(c2c1)CC(=S)N1CCCC(CC3=O)C1` (centres undefined), the TGI is over 100 µM.
Same read-out and setting: the figure for `COC(=O)CC1C=CC(C)(OC)OO1` (centres undefined) is 97.9 µM; for `CCOC(=O)CO/N=C1/C(c2c(O)[nH]c3ccccc23)=Nc2ccccc21` it is over 100 µM.

A further experiment concerns RXF 393 renal. Nature of the experiment: growth of human tumour cells (NCI), 48 h.
`CC(C)CC(NC(=O)C(CI)Cc1ccccc1)C(=O)Nc1ccccc1` (centres undefined): the TGI was over 100 µM.
Still for that read-out and setting: then `O=C1c2cccc3cccc(c23)C2NCCCN12` (centres undefined), with over 100 µM; and `CCCCSC1=N/C(=C\c2ccco2)C(Cl)=N1`, with over 100 µM.
Still for that read-out and setting: then `c1ccc(NN=C(c2ccccn2)c2ccccn2)nc1`, with over 100 µM; and `CC(=O)O[C@H]1CCC2[C@@H]3CCC4Nc5oncc5C[C@]4(C)C3CC[C@@]21C` (some centres undefined), with over 10 µM; and `CCOC(=O)c1nc2ccc(C(F)(F)F)cc2[nH]c1=O`, with over 100 µM.
Consider `COC1=CC2C(c3cc4ccccc4n3S(=O)(=O)c3ccccc3)CC1CN2C(=O)OCc1ccccc1` (centres undefined), for which the TGI came out at 69.2 µM.
Still for that read-out and setting: the figure for `Cc1cn(C2CC(O)C(CO[Si](C)(C)C(C)(C)C)OC2OC(C)C)c(=O)[nH]c1=O` (centres undefined) is 88.7 µM.
On the same count and under the same terms, then `CNC(=S)N=Nc1c(O)n(CN2CCOCC2)c2ccc([N+](=O)[O-])cc12`, with 30 µM.
Still for that read-out and setting: then `COc1ccc(-c2csc(Cc3nc4ccccc4c(=O)n3-c3ccc(Cl)cc3)n2)cc1`, with over 100 µM.
In turn, `O=C(Nc1nncs1)NS(=O)(=O)n1c(=S)sc2ccccc21` showed a TGI of over 100 µM.
For `Cc1nc2ccc(NC(=S)Nc3ccccc3)cc2c(=O)n1-c1ccccc1`, the TGI was over 100 µM.
The same measure, in the same setting: the figure for `COc1ccc2[nH]c3c(c2c1)CC(=S)N1CCCC(CC3=O)C1` (centres undefined) is 81 µM; for `COC(=O)CC1C=CC(C)(OC)OO1` (centres undefined) it is over 100 µM; for `CCOC(=O)CO/N=C1/C(c2c(O)[nH]c3ccccc23)=Nc2ccccc21` it is 29.2 µM.

The subject of the next experiment is NCI-H460 lung. As to the kind of experiment: growth of human tumour cells (NCI), 48 h.
`CC(C)CC(NC(=O)C(CI)Cc1ccccc1)C(=O)Nc1ccccc1` (centres undefined) displayed a TGI of over 100 µM.
On the same count and under the same terms, then `O=C1c2cccc3cccc(c23)C2NCCCN12` (centres undefined), with over 100 µM; and `CCCCSC1=N/C(=C\c2ccco2)C(Cl)=N1`, with over 100 µM.
On the same count and under the same terms, then `c1ccc(NN=C(c2ccccn2)c2ccccn2)nc1`, with over 100 µM; and `CC(=O)O[C@H]1CCC2[C@@H]3CCC4Nc5oncc5C[C@]4(C)C3CC[C@@]21C` (some centres undefined), with over 10 µM; and `CCOC(=O)c1nc2ccc(C(F)(F)F)cc2[nH]c1=O`, with over 100 µM.
Still for that read-out and setting: then `COC1=CC2C(c3cc4ccccc4n3S(=O)(=O)c3ccccc3)CC1CN2C(=O)OCc1ccccc1` (centres undefined), with over 100 µM.
The compound `Cc1cn(C2CC(O)C(CO[Si](C)(C)C(C)(C)C)OC2OC(C)C)c(=O)[nH]c1=O` (centres undefined) displayed a TGI of over 100 µM.
Same read-out and setting: then `CNC(=S)N=Nc1c(O)n(CN2CCOCC2)c2ccc([N+](=O)[O-])cc12`, with 75 µM; and `COc1ccc(-c2csc(Cc3nc4ccccc4c(=O)n3-c3ccc(Cl)cc3)n2)cc1`, with over 100 µM; and `O=C(Nc1nncs1)NS(=O)(=O)n1c(=S)sc2ccccc21`, with over 100 µM.
On the same count and under the same terms, the figure for `Cc1nc2ccc(NC(=S)Nc3ccccc3)cc2c(=O)n1-c1ccccc1` is over 100 µM; for `COc1ccc2[nH]c3c(c2c1)CC(=S)N1CCCC(CC3=O)C1` (centres undefined) it is 92.6 µM; for `COC(=O)CC1C=CC(C)(OC)OO1` (centres undefined) it is 24.4 µM.
Same read-out and setting: then `CCOC(=O)CO/N=C1/C(c2c(O)[nH]c3ccccc23)=Nc2ccccc21`, with over 100 µM.

The subject of the next experiment is SF-539 CNS. As to the kind of experiment: growth of human tumour cells (NCI), 48 h.
With `CC(C)CC(NC(=O)C(CI)Cc1ccccc1)C(=O)Nc1ccccc1` (centres undefined), the TGI is over 100 µM.
Same read-out and setting: the figure for `c1ccc(NN=C(c2ccccn2)c2ccccn2)nc1` is over 47.5 µM.
As to `CC(=O)O[C@H]1CCC2[C@@H]3CCC4Nc5oncc5C[C@]4(C)C3CC[C@@]21C` (some centres undefined), the TGI is 9.84 µM.
On the same count and under the same terms, then `CCOC(=O)c1nc2ccc(C(F)(F)F)cc2[nH]c1=O`, with over 100 µM.
Same read-out and setting: the figure for `Cc1cn(C2CC(O)C(CO[Si](C)(C)C(C)(C)C)OC2OC(C)C)c(=O)[nH]c1=O` (centres undefined) is 56.1 µM; for `CNC(=S)N=Nc1c(O)n(CN2CCOCC2)c2ccc([N+](=O)[O-])cc12` it is 33.1 µM.
On the same count and under the same terms, the figure for `O=C(Nc1nncs1)NS(=O)(=O)n1c(=S)sc2ccccc21` is over 100 µM; for `COC(=O)CC1C=CC(C)(OC)OO1` (centres undefined) it is over 100 µM; for `CCOC(=O)CO/N=C1/C(c2c(O)[nH]c3ccccc23)=Nc2ccccc21` it is over 100 µM.

The test system of the next experiment is HCC-2998 colon. As to the kind of experiment: growth of human tumour cells (NCI), 48 h.
Take `CC(C)CC(NC(=O)C(CI)Cc1ccccc1)C(=O)Nc1ccccc1` (centres undefined): the TGI was over 100 µM.
For the compound `O=C1c2cccc3cccc(c23)C2NCCCN12` (centres undefined), the TGI was over 100 µM.
For `CCCCSC1=N/C(=C\c2ccco2)C(Cl)=N1`, the TGI is over 100 µM.
On the same count and under the same terms, then `c1ccc(NN=C(c2ccccn2)c2ccccn2)nc1`, with over 100 µM; and `CC(=O)O[C@H]1CCC2[C@@H]3CCC4Nc5oncc5C[C@]4(C)C3CC[C@@]21C` (some centres undefined), with over 10 µM; and `CCOC(=O)c1nc2ccc(C(F)(F)F)cc2[nH]c1=O`, with over 100 µM.
Compound `COC1=CC2C(c3cc4ccccc4n3S(=O)(=O)c3ccccc3)CC1CN2C(=O)OCc1ccccc1` (centres undefined) yielded a TGI of over 100 µM.
Compound `Cc1cn(C2CC(O)C(CO[Si](C)(C)C(C)(C)C)OC2OC(C)C)c(=O)[nH]c1=O` (centres undefined) had a TGI of 62.7 µM.
Regarding `CNC(=S)N=Nc1c(O)n(CN2CCOCC2)c2ccc([N+](=O)[O-])cc12`, the TGI was determined as 45.1 µM.
Still for that read-out and setting: the figure for `COc1ccc(-c2csc(Cc3nc4ccccc4c(=O)n3-c3ccc(Cl)cc3)n2)cc1` is over 100 µM; for `O=C(Nc1nncs1)NS(=O)(=O)n1c(=S)sc2ccccc21` it is over 100 µM.
For `Cc1nc2ccc(NC(=S)Nc3ccccc3)cc2c(=O)n1-c1ccccc1`, the TGI is over 100 µM.
With `COc1ccc2[nH]c3c(c2c1)CC(=S)N1CCCC(CC3=O)C1` (centres undefined), the TGI was over 100 µM.
On the same count and under the same terms, then `COC(=O)CC1C=CC(C)(OC)OO1` (centres undefined), with over 100 µM; and `CCOC(=O)CO/N=C1/C(c2c(O)[nH]c3ccccc23)=Nc2ccccc21`, with over 100 µM.

For another experiment, the system named is SW-620 colon. Nature of the experiment: growth of human tumour cells (NCI), 48 h.
As to `CC(C)CC(NC(=O)C(CI)Cc1ccccc1)C(=O)Nc1ccccc1` (centres undefined), the TGI was over 100 µM.
For the compound `O=C1c2cccc3cccc(c23)C2NCCCN12` (centres undefined), the TGI is over 100 µM.

The values above are taken from PubChem BioAssay (NCI).
